Experimental data from patent US20260184710A1, “CASITAS B-LINEAGE LYMPHOMA PROTOONCOGENE B (CBL-B) DEGRADING COMPOUNDS AND ASSOCIATED METHODS OF USE” (Arvinas Operations, Inc., priority 2022, published 2026).

Key:
Cbl-b [1] = biological target: T1, Cbl-b (Homo sapiens, UniProt Q13191); test: Cbl-b Degradation Method A (FACS, anti-Cbl-b antibody staining); assay type: cell-based; details: for DC50: half maximal degradation, read-out: Cbl-b Degredation Method A IC50; for Dmax: Jurkat, read-out: Cbl-b Degredation Method A Dmax (%)
T1 construct: Cbl-b-HiBit KI Jurkat Cells were purchased from Promega; host or cells: Cbl-b-HiBiT knock-in Jurkat cells
How it was run: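 Readout is flow cytometry of fixed, permeabilized cells immunostained for Cbl-b (primary 1:200, AF488 secondary). Cells were Cbl-b-HiBit knock-in Jurkat, exposed to compound ≥20 h at 37 °C; half-maximal degradation concentration (DC50) and maximal degradation (Dmax) calculated relative to control.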

Cbl-b [2] = biological target: T1, Cbl-b; test: Cbl-b Degradation Method B (Nano-Glo HiBiT lytic detection); assay type: cell-based; details: Cbl-b-HiBit KI Jurkat Cells, incubated at least 6-24 hours; for DC50: half maximal degradation, read-out: Cbl-b Degredation Method B IC50; for Dmax / Cbl-b Degredation Method B Dmax (%): maximum degradation observed; for Dmax: read-out: Cbl-b Degredation Method B Dmax (%)
How it was run: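 An 11-point, 3-fold compound dilution was applied for 6-24 hours to Jurkat cells carrying HiBiT-tagged endogenous Cbl-b. Lytic HiBiT luminescence quantified residual protein. Outputs are DC50 and Dmax relative to DMSO control.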

[3] = Cbl-b-HiBit KI Jurkat Cells, incubated at least 20 hours
[4] = Cbl-b-HiBit KI Jurkat Cells, incubated at least 20 hours, maximum degradation observed

T1 sequence (Q13191 whole entry): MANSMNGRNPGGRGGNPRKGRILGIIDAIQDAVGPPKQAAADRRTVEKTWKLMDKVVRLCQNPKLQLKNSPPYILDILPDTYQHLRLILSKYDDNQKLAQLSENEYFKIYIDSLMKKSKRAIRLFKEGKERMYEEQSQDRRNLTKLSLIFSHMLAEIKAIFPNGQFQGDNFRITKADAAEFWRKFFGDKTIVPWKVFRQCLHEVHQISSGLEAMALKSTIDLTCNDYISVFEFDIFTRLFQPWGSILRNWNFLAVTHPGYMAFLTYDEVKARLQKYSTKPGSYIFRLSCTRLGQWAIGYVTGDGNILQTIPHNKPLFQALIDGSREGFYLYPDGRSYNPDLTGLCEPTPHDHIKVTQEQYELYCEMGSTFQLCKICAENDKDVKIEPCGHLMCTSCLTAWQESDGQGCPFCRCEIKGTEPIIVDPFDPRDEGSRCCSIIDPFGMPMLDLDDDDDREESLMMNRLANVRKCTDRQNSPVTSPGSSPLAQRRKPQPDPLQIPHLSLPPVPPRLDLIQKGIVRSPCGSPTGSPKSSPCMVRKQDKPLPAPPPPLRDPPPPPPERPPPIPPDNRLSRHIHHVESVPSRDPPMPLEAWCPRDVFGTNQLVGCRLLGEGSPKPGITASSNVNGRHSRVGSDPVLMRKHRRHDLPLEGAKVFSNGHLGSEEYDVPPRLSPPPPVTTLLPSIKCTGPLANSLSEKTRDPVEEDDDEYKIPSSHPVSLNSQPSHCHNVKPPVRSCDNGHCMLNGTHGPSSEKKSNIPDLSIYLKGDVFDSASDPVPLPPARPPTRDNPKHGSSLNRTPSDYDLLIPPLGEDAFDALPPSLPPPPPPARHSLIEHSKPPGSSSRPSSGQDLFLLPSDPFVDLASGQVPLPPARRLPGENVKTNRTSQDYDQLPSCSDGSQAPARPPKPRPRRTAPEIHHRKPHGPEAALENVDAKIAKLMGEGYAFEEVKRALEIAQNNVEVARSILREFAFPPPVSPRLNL

Row | DC50 (Cbl-b [1]; [3]) | DC50 (Cbl-b [2]) | Dmax (Cbl-b [2]) | Dmax (Cbl-b [1]; [4]) | Cbl-b Degredation Method B Dmax (%) (Cbl-b [2]) | SMILES | Dmax (Cbl-b [1])
1 | > 500 nM | > 500 nM | – | – | – | Cn1cnnc1CC1(c2cccc(N3Cc4c(cc(N5CCC6(CCN(c7ccc8c(c7)C(=O)N(C7CCC(=O)NC7=O)C8=O)CC6)CC5)cc4C(F)(F)F)C3=O)c2)COC1 (stereo not shown) [Example 125, 2-(2,6-dioxopiperidin-3-yl)-5-{9-[2-(3-{3-[(4-methyl-4H-1,2,4-triazol-3-yl)methyl]oxetan-3-yl}phenyl)-3-oxo-7-(trifluoromethyl)-2,3-dihydro-1H-isoindol-5-yl]-3,9-diazaspiro[5.5]undecan-3-yl}-2,3-dihydro-1H-isoindole-1,3-dione] | –
2 | 5 to 50 nM | < 5 nM | 35 to 70% | 35 to 70% | – | CC1c2nc(N3CCC(O[C@H]4CC[C@H](CN5C[C@@H]6C[C@H]5CN6Cc5cc6c(c(C(F)(F)F)c5)CN(c5cccc([C@]7(Cc8nncn8C)C[C@H](C#N)C7)c5)C6=O)CC4)CC3)ccc2C(=O)N1C1CCC(=O)NC1=O (stereo partly drawn) [Example 214, (1r,3r)-3-[(4-methyl-4H-1,2,4-triazol-3-yl)methyl]-3-[3-(1-oxo-6-{[(1S,4S)-5-{[(1r,4r)-4-({1-[6-(2,6-dioxopiperidin-3-yl)-7-methyl-5-oxo-5H,6H,7H-pyrrolo[3,4-b]pyridin-2-yl]piperidin-4-yl}oxy)cyclohexyl]methyl}-2,5-diazabicyclo[2.2.1]heptan-2-yl]methyl}-4-(trifluoromethyl)-2,3-dihydro-1H-isoindol-2-yl)phenyl]cyclobutane-1-carbonitrile] | –
3 | 5 to 50 nM | < 5 nM | – | < 35% | C (C ≤ 35) | CC(C)n1c(=O)n(C2CCC(=O)NC2=O)c2cccc(N3CCC(O[C@H]4CC[C@H](CN5CC6(CCN(Cc7cc8c(c(C(F)(F)F)c7)CN(c7cccc([C@]9(Cc%10nncn%10C)C[C@@H](C#N)C9)c7)C8=O)CC6)C5)CC4)CC3)c21 (stereo partly shown) [Example 321, (1r,3r)-3-[(4-methyl-4H-1,2,4-triazol-3-yl)methyl]-3-(3-{1-oxo-6-[(2-{[(1r,4r)-4-({1-[1-(2,6-dioxopiperidin-3-yl)-2-oxo-3-(propan-2-yl)-2,3-dihydro-1H-1,3-benzodiazol-4-yl]piperidin-4-yl}oxy)cyclohexyl]methyl}-2,7-diazaspiro[3.5]nonan-7-yl)methyl]-4-(trifluoromethyl)-2,3-dihydro-1H-isoindol-2-yl}phenyl)cyclobutane-1-carbonitrile] | –
4 | 50 to 500 nM | 5 to 50 nM | – | 35 to 70% | C (C ≤ 35) | CC(C)n1c(=O)n(C2CCC(=O)NC2=O)c2cccc(N3CCC(O[C@H]4CC[C@H](CN5CCN(Cc6cc7c(c(C(F)(F)F)c6)CN(c6cccc([C@]8(Cc9nncn9C)C[C@@H](C#N)C8)c6)C7=O)C(C)(C)C5)CC4)CC3)c21 (stereo partly shown) [Example 302, (1r,3r)-3-(3-{6-[(2,2-dimethyl-4-{[(1r,4r)-4-({1-[1-(2,6-dioxopiperidin-3-yl)-2-oxo-3-(propan-2-yl)-2,3-dihydro-1H-1,3-benzodiazol-4-yl]piperidin-4-yl}oxy)cyclohexyl]methyl}piperazin-1-yl)methyl]-1-oxo-4-(trifluoromethyl)-2,3-dihydro-1H-isoindol-2-yl}phenyl)-3-[(4-methyl-4H-1,2,4-triazol-3-yl)methyl]cyclobutane-1-carbonitrile] | –
5 | 50 to 500 nM | < 5 nM | – | 35 to 70% | C (C ≤ 35) | Cn1cnnc1CC1(c2cccc(N3Cc4c(cc(CN5CCN(C[C@H]6CC[C@H](OC7CCN(c8cccc9c8n(C8CC8)c(=O)n9C8CCC(=O)NC8=O)CC7)CC6)CC5(C)C)cc4C(F)(F)F)C3=O)c2)CC(C#N)C1 (stereo partly shown) [Example 312, (1r**,3r**)-3-(3-{6-[(2,2-dimethyl-4-{[(1r*,4r*)-4-({1-[3-cyclopropyl-1-(2,6-dioxopiperidin-3-yl)-2-oxo-2,3-dihydro-1H-1,3-benzodiazol-4-yl]piperidin-4-yl}oxy)cyclohexyl]methyl}piperazin-1-yl)methyl]-1-oxo-4-(trifluoromethyl)-2,3-dihydro-1H-isoindol-2-yl}phenyl)-3-[(4-methyl-4H-1,2,4-triazol-3-yl)methyl]cyclobutane-1-carbonitrile] | –
6 | 5 to 50 nM | < 5 nM | – | 35 to 70% | C (C ≤ 35) | CC1c2nc(N3CCC(O[C@H]4CC[C@H](CN5CCN(Cc6cc7c(c(C(F)(F)F)c6)CN(c6cccc(C8(c9nncn9C)CCO8)c6)C7=O)C(C)(C)C5)CC4)CC3)ccc2C(=O)N1C1CCC(=O)NC1=O (stereo partly shown) [Example 281, 3-[7-methyl-5-oxo-2-(4-{[(1r, 4r)-4-({3,3-dimethyl-4-[(2-{3-[2-(4-methyl-4H-1,2,4-triazol-3-yl)oxetan-2-yl]phenyl}-3-oxo-7-(trifluoromethyl)-2,3-dihydro-1H-isoindol-5-yl)methyl]piperazin-1-yl}methyl)cyclohexyl]oxy}piperidin-1-yl)-5H, 6H, 7H-pyrrolo[3,4-b]pyridin-6-yl]piperidine-2,6-dione] | –
7 | 5 to 50 nM | < 5 nM | 35 to 70% | 35 to 70% | – | Cn1cnnc1CC1(c2cccc(N3Cc4c(cc(N5CC6(CCN(CC7CN(c8ccc9c(c8)C(=O)N(C8CCC(=O)NC8=O)C9=O)C7)CC6)C5)cc4C(F)(F)F)C3=O)c2)COC1 (stereo not shown) [Example 132, 2-(2,6-dioxopiperidin-3-yl)-5-[3-({2-[2-(3-{3-[(4-methyl-4H-1,2,4-triazol-3-yl)methyl]oxetan-3-yl}phenyl)-3-oxo-7-(trifluoromethyl)-2,3-dihydro-1H-isoindol-5-yl]-2,7-diazaspiro[3.5]nonan-7-yl}methyl)azetidin-1-yl]-2,3-dihydro-1H-isoindole-1,3-dione] | –
8 | 5 to 50 nM | > 500 nM | – | < 35% | – | Cn1cnnc1C1(c2cccc(N3Cc4c(cc(CN5CCC[C@H](CN6CCN(C[C@H]7CC[C@@H](OC8CCN(c9ccc%10c(c9F)CN(C9CCC(=O)NC9=O)C%10=O)CC8)CC7)CC6)C5)cc4C(F)(F)F)C3=O)c2)COC1 (stereo partly drawn) [Example 161, 3-[4-fluoro-1-oxo-5-(4-{[(1r,4r)-4-[(4-{[(3S)-1-[(2-{3-[3-(4-methyl-4H-1,2,4-triazol-3-yl)oxetan-3-yl]phenyl}-3-oxo-7-(trifluoromethyl)-2,3-dihydro-1H-isoindol-5-yl)methyl]piperidin-3-yl]methyl}piperazin-1-yl)methyl]cyclohexyl]oxy}piperidin-1-yl)-2,3-dihydro-1H-isoindol-2-yl]piperidine-2,6-dione] | –
9 | 50 to 500 nM | 5 to 50 nM | < 35% | > 70% | – | Cn1cnnc1CC1(c2cccc(N3Cc4c(cc(N5CCC[C@H](CN6CCC(CN7CCC(CN8CCN(c9ccc%10c(c9)C(=O)N(C9CCC(=O)NC9=O)C%10=O)CC8)CC7)CC6)C5)cc4C(F)(F)F)C3=O)c2)COC1 (stereo partly drawn) [Example 16, 2-(2,6-dioxo-3-piperidyl)-5-[4-[[1-[[1-[[(3R)-1-[2-[3-[3-[(4-methyl-1,2,4-triazol-3-yl)methyl]oxetan-3-yl]phenyl]-3-oxo-7-(trifluoromethyl)isoindolin-5-yl]-3-piperidyl]methyl]-4-piperidyl]methyl]-4-piperidyl]methyl]piperazin-1-yl]isoindoline-1,3-dione] | –
10 | 5 to 50 nM | < 5 nM | 35 to 70% | 35 to 70% | – | CC1CC(CN2CCC(CC3CCN(c4ccc5c(c4)C(=O)N(C4CCC(=O)NC4=O)C5=O)CC3)CC2)CN(Cc2cc3c(c(C(F)(F)F)c2)CN(c2cccc(C4(Cc5nncn5C)COC4)c2)C3=O)C1 (stereo not shown) [Example 94, 2-(2,6-dioxopiperidin-3-yl)-5-[4-({1-[(5-methyl-1-{[2-(3-{3-[(4-methyl-4H-1,2,4-triazol-3-yl)methyl]oxetan-3-yl}phenyl)-3-oxo-7-(trifluoromethyl)-2,3-dihydro-1H-isoindol-5-yl]methyl}piperidin-3-yl)methyl]piperidin-4-yl}methyl)piperidin-1-yl]-2,3-dihydro-1H-isoindole-1,3-dione] | –
11 | > 500 nM | > 500 nM | – | – | – | Cn1cnnc1CC1(c2cccc(N3Cc4c(cc(CN5CCC(CN6CCN(c7cccc8c7C(=O)N(C7CCC(=O)NC7=O)C8=O)CC6)CC5)cc4C(F)(F)F)C3=O)c2)COC1 (stereo not shown) [Example 88, 2-(2,6-dioxopiperidin-3-yl)-4-(4-((1-((2-(3-(3-((4-methyl-4H-1,2,4-triazol-3-yl)methyl)oxetan-3-yl)phenyl)-3-oxo-7-(trifluoromethyl)isoindolin-5-yl)methyl)piperidin-4-yl)methyl)piperazin-1-yl)isoindoline-1,3-dione] | –

Row | SMILES | DC50 (Cbl-b [1]; [3]) | DC50 (Cbl-b [2]) | Dmax (Cbl-b [2]) | Dmax (Cbl-b [1]; [4]) | Cbl-b Degredation Method B Dmax (%) (Cbl-b [2]) | Dmax (Cbl-b [1])
12 | Cn1cnnc1CC1(c2cccc(N3Cc4c(cc(CN5CCC[C@H](CN6CCN(C[C@H]7CC[C@H](OC8CCN(c9ccc%10c(c9F)CN(C9CCC(=O)NC9=O)C%10=O)CC8)CC7)CC6(C)C)C5)cc4C(F)(F)F)C3=O)c2)COC1 (stereo partly drawn) [Example 148, 3-[5-[4-[4-[[3,3-dimethyl-4-[[(3S)-1-[[2-[3-[3-[(4-methyl-1,2,4-triazol-3-yl)methyl]oxetan-3-yl]phenyl]-3-oxo-7-(trifluoromethyl)isoindolin-5-yl]methyl]-3-piperidyl]methyl]piperazin-1-yl]methyl]cyclohexoxy]-1-piperidyl]-4-fluoro-1-oxo-isoindolin-2-yl]piperidine-2,6-dione] | < 5 nM | < 5 nM | > 70% | – | – | > 70%
